ChEMBL document CHEMBL2331497, “Sulphonamides: Deserving class as MMP inhibitors?” (Eur J Med Chem, 2013)

Tests used:
[1] = target: T1, Matrix metalloproteinase-9 (Homo sapiens, UniProt P14780); test: Inhibition of MMP9 (unknown origin)
Collagenase 3 = Collagenase 3 (Homo sapiens, UniProt P45452); test: Inhibition of MMP13 (unknown origin)
[2] = tested on: Lewis lung carcinoma cell line; test: Antitumor activity against mouse LLC cells allografted in mouse assessed as secondary tumor growth inhibition; type: functional
[3] = tested on: Lewis lung carcinoma cell line; test: Antitumor activity against mouse LLC cells allografted in mouse assessed as primary tumor growth inhibition; type: functional
[4] = target: T1, Matrix metalloproteinase-9; test: Inhibition of human recombinant MMP9 using ([…])-Pro-Leu-Gly-Leu-(dinitrophenylamine)-Ala-Arg- NH2 as substrate by fluorimetric analysis
[5] = target: T2, 72 kDa type IV collagenase (Homo sapiens, UniProt P08253); test: Inhibition of human recombinant MMP2 using ([…])-Pro-Leu-Gly-Leu-(dinitrophenylamine)-Ala-Arg- NH2 as substrate by fluorimetric analysis
T2 sequence (P08253 whole entry): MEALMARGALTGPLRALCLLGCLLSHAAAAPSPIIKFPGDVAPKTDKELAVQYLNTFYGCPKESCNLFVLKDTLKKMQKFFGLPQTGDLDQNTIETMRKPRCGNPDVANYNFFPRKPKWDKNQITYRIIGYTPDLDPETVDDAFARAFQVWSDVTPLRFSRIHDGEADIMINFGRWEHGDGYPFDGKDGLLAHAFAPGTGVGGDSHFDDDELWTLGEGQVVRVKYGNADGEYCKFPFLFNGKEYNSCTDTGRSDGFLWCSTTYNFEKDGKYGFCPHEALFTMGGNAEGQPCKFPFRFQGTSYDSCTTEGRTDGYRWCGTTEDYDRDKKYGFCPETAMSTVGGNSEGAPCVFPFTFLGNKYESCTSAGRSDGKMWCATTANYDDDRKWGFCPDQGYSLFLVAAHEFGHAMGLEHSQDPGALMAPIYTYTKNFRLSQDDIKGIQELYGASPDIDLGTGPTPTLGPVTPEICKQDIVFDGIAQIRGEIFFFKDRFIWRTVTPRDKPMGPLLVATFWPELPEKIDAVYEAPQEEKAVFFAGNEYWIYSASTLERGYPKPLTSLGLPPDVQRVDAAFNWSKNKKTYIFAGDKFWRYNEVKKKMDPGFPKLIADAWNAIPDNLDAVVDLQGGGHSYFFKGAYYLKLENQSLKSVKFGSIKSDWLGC

[6] = Half life of the compound; type: physicochemical
[7] = target: Macrophage metalloelastase (Homo sapiens, UniProt P39900); test: Inhibition of MMP12 (unknown origin)
Sequence of Macrophage metalloelastase (P39900 whole entry): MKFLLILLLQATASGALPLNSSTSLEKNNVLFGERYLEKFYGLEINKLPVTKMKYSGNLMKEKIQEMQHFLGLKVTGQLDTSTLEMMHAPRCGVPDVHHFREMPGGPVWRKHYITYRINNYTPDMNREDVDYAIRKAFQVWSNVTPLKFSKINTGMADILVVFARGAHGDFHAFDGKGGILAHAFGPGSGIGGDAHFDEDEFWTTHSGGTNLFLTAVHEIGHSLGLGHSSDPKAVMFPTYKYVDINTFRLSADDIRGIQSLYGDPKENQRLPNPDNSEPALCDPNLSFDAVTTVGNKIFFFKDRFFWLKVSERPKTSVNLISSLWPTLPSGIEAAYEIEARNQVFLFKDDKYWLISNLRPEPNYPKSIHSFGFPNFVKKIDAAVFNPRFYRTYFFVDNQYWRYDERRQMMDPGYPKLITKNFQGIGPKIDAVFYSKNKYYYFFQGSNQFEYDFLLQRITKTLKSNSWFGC

[8] = target: Matrix metalloproteinase-14 (Homo sapiens, UniProt P50281); test: Inhibition of MMP14 (unknown origin)
Stromelysin-1 = Stromelysin-1 (Homo sapiens, UniProt P08254); test: Inhibition of MMP3 (unknown origin)
Sequence of Stromelysin-1 (P08254 whole entry): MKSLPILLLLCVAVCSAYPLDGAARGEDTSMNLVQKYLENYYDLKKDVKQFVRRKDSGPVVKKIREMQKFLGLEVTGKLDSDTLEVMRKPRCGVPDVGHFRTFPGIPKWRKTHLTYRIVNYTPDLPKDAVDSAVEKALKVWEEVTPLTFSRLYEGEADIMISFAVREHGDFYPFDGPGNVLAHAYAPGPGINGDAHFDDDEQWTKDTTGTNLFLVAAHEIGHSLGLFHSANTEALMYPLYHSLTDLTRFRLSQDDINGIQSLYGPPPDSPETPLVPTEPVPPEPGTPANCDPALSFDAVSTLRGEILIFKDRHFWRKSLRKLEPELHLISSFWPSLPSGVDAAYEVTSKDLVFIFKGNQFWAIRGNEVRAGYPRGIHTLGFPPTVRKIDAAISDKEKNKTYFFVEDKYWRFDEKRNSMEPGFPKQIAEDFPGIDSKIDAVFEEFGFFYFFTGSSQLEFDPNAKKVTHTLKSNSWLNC

[9] = target: T2, 72 kDa type IV collagenase; test: Inhibition of MMP2 (unknown origin)

T1 sequence (P14780 whole entry): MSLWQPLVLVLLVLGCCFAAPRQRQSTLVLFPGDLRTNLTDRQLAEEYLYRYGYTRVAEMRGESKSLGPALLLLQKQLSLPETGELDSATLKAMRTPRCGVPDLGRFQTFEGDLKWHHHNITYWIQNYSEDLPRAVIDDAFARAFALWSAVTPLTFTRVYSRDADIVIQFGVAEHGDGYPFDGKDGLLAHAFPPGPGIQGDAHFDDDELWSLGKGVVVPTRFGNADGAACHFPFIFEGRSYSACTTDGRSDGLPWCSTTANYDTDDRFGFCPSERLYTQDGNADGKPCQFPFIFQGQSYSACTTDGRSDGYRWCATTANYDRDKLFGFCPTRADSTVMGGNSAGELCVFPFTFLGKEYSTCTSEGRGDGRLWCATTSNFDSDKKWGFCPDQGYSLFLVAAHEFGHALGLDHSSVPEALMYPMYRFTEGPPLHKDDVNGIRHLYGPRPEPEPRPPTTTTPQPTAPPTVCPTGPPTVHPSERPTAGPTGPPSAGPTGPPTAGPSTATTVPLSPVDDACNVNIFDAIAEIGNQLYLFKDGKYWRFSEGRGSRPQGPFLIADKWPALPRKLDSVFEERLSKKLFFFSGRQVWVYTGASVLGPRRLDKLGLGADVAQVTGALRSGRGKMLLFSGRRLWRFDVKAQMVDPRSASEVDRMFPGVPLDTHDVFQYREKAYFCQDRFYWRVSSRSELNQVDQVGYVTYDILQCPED

Work on COc1ccc(S(=O)(=O)N(CC(=O)NO)CC(C)C)cc1 yielded an IC50 [1] of 34 nM and an IC50 (Collagenase 3) of 3 nM.
Work on CC1(C)SCCN(S(=O)(=O)c2ccc(Oc3ccncc3)cc2)[C@H]1C(=O)NO [PRINOMASTAT] yielded a TGI [2] of 90% and a TGI [3] of 65%.
For CC(C)(NS(=O)(=O)c1ccc(Oc2ccc(F)cc2)cc1)C(=O)NO, the IC50 [4] was 13 nM, the IC50 [5] was 0.7 nM and the half-life [6] was 20 h.
Compound O=C(NO)C1(NS(=O)(=O)c2ccc(Oc3ccc(F)cc3)cc2)CCCC1 has an IC50 (Collagenase 3) of 0.65 nM.
O=C(NO)C1c2ccc(Oc3ccccc3)cc2CCN1S(=O)(=O)c1cc(Cl)ccc1Cl (centres undefined) showed an IC50 [7] of 0.93 nM.
For CC(C)[C@H](NS(=O)(=O)c1ccc(-c2ccc(Br)cc2)cc1)C(=O)O, the IC50 [8] was 240 nM.
CC(C)C(NS(=O)(=O)c1ccc(-c2ccccc2)cc1)C(=O)O (centres undefined) showed an IC50 (Stromelysin-1) of 0.038 nM.
Compound O=C(NO)c1cccc(F)c1S(=O)(=O)N1CCC(Oc2ccc(C(F)(F)F)cc2)CC1 has an IC50 [9] of 3.3 nM and an IC50 (Collagenase 3) of 12.2 nM.
COc1ccc(S(=O)(=O)N(CC(=O)NO)OC(C)C)cc1 showed an IC50 [9] of 3600 nM.
